How the values were obtained:
[1] = cited from earlier work
[2] = Estimate of maximal amount of lymphatic absorbed TU; settings: estimated: 25% of solubility x 120 mg/g x 3.5 g triglyceride/10 h, formulation of 600 mg fat
Excerpt: The maximal amount of lymphatic absorbed TU can be estimated from the solubility of Testosterone Undecanoate in triglyceride and the transported triglyceride (Int. J. Pharm., vol. 34, 175-178, 1986).

For `CCCCCCCCCCC(=O)O[C@H]1CC[C@H]2[C@@H]3CCC4=CC(=O)CC[C@]4(C)[C@H]3CC[C@]12C` [Testosterone Undecanoate], the solubility in triglyceride [1] is given as 120 mg/g and the “maximal amount of lymphatic absorbed TU” value [2] is given as ~100 mg.

From patent US9682148B2, “Solid oral dosage form of testosterone derivative” (Solural Pharma APS, priority 2012, dated 2017)
